One data set relates to Human immunodeficiency virus 1. Put plainly: Antiviral activity against HIV1 pseudovirus infected in human B cell assessed as inhibition of infection at 5 uM after 48 to 72 hrs by flow cytometry. The data set is classed as functional. The following applies: Human immunodeficiency virus 1, B.
As usually defined, the inhibition is the relative decrease from the control value, in per cent. As for `COc1cc(N=C(S)NCCCO)c(OC)cc1Cl`, the inhibition at 5 µM was 92%.
On the same count and under the same terms, the figure for `CCCOCCCNC(=S)Nc1cc(OCC)c(Cl)cc1OCC` is 58%.
Still for that read-out and setting: the figure for `CCCOCCCNC(=S)Nc1cc(OCCC)c(Cl)cc1OCCC` is 107%.
The same measure, in the same setting: to `CCCOCCCNC(=S)Nc1cc(OC)c([N+](=O)[O-])cc1OC` belongs 107%; to `CCCOCCCNC(=O)Nc1cc(OC)c(Cl)cc1OC`, 47%.
In the case of `CCCCCCCNC(=O)Nc1cc(OC)c(Cl)cc1OC`, the inhibition at 5 µM was 89%.
As to `CCCOCCNC(=S)Nc1cc(OC)c(Cl)cc1OC`, the inhibition at 5 µM came to 46%.
Same read-out and setting: the figure for `COCCCNC(=S)Nc1cc(OC)c(Cl)cc1OC` is 105%; for `CCOCCCNC(=S)Nc1cc(OC)c(Cl)cc1OC` it is 66%; for `CCCCCCNC(=S)Nc1cc(OC)c(Cl)cc1OC` it is 87%.
On the same count and under the same terms, to `CCCCCCCNC(=S)Nc1cc(OC)c(Cl)cc1OC` belongs 87%; to `CCCCCCNC(=S)Nc1cc(OCC)c(Cl)cc1OCC`, 107%; to `CCCCCCCNC(=S)Nc1cc(OCC)c(Cl)cc1OCC`, 69%.
Turning to `CCCSCCCNC(=S)Nc1cc(OC)c(Cl)cc1OC`, the inhibition at 5 µM is 24%.
Still for that read-out and setting: the figure for `CCC[S+]([O-])CCCNC(=S)Nc1cc(OC)c(Cl)cc1OC` (stereo not drawn) is 91%; for `CCCNCCCNC(=S)Nc1cc(OC)c(Cl)cc1OC` it is 83%; for `CCCC(=O)OCCCN/C(=N/c1cc(OC)c(Cl)cc1OC)SC(=O)CCC` it is 87%.
Still for that read-out and setting: to `CCCC(=O)OCCCNC(=S)Nc1cc(OC)c(Cl)cc1OC` belongs 65%; to `CCC(=O)OCCCNC(=S)Nc1cc(OC)c(Cl)cc1OC`, 86%.
Same read-out and setting: to `COc1cc(NC(=S)NCCCOC(C)=O)c(OC)cc1Cl` belongs 123%.
For `CCCCOC(=O)CCNC(=S)Nc1cc(OC)c(Cl)cc1OC`, the inhibition at 5 µM was determined as 43%.
The same measure, in the same setting: the figure for `CCCOC(=O)CCNC(=S)Nc1cc(OC)c(Cl)cc1OC` is 66%.
Still for that read-out and setting: the figure for `COC(=O)CCNC(=S)Nc1cc(OC)c(Cl)cc1OC` is 56%.
The same measure, in the same setting: to `CCOC(=O)CCNC(=S)Nc1cc(OC)c(Cl)cc1OC` belongs 66%.
With `COc1cc(NC(=S)NCCC(=O)O)c(OC)cc1Cl`, the inhibition at 5 µM came out at 91%.
The same measure, in the same setting: the figure for `COC(=O)CCCNC(=S)Nc1cc(OC)c(Cl)cc1OC` is 73%; for `CCOC(=O)CCCNC(=S)Nc1cc(OC)c(Cl)cc1OC` it is 24%; for `CCCOC(=O)CCCNC(=S)Nc1cc(OC)c(Cl)cc1OC` it is 17%.
The same measure, in the same setting: the figure for `CCCCOC(=O)CCCNC(=S)Nc1cc(OC)c(Cl)cc1OC` is 29%; for `CCCNC(=O)CCCNC(=S)Nc1cc(OC)c(Cl)cc1OC` it is 69%.
Still for that read-out and setting: to `CCCSC(=O)CCCNC(=S)Nc1cc(OC)c(Cl)cc1OC` belongs 79%; to `COC(=O)CCCNC(=O)Nc1cc(OC)c(Cl)cc1OC`, 87%.
For the compound `CCOC(=O)CCCNC(=O)Nc1cc(OC)c(Cl)cc1OC`, the inhibition at 5 µM was found to be 65%.
Still for that read-out and setting: the figure for `COc1cc(NC(=S)N2CCCC2=O)c(OC)cc1Cl` is 104%.

For another data set, the system named is Human immunodeficiency virus 1. The data set is described as follows: Antiviral activity against HIV1 pseudovirus infected in human B cell assessed as inhibition of infection. The data set is classed as functional, organism-based. The following applies: Human immunodeficiency virus 1, B.
As a reminder, the IC50 is the point on the concentration scale where inhibition reaches its midpoint. As to `CCCOC(=O)CCCNC(=S)Nc1cc(OC)c(Cl)cc1OC`, the IC50 turned out to be 1.1 nM.
Still for that read-out and setting: to `CCCOCCCNC(=S)Nc1cc(OC)c(Cl)cc1OC` belongs 168 nM.

Tested on in a further data set: not listed separately
The data set is described as follows: Cytotoxicity against HIV1 pseudovirus infected in human B cells. The data set is classed as cell-based. The following applies: b cell.
For the compound `CCCSCCCNC(=O)Nc1cc(OC)c(Cl)cc1OC`, the Activity result is recorded as “Toxic”.
On the same count and under the same terms, the entry for `CCCN(CCCNC(=S)Nc1cc(OC)c(Cl)cc1OC)C(=O)OC(C)(C)C` is “Toxic”.

For the origin of these results see ChEMBL document CHEMBL1667744, “Structure--activity relationship studies of 1-(4-chloro-2,5-dimethoxyphenyl)-3-(3-propoxypropyl)thiourea, a non-nucleoside reverse transcriptase inhibitor of human immunodeficiency virus type-1” (Eur J Med Chem, 2011).
